“Also recorded” adds a separate entry of the source.
What was measured:
Huh-7 cells = assay: Oil-Red O staining and lipid accumulation in steatosis-induced Huh-7 cells; type: cell-based; conditions: Huh-7 cells pretreated with OA/PA (R-28: OA); 10, 20 or 40 μM (R-28: 2, 10, 50 μM); 24 hours
Description: Huh-7 cells were maintained in a RPMI1640 medium containing 10% FBS, 100 U/mL of penicillin, and 100 μg/mL of streptomycin. All reagents were purchased from Life Technologies Corporation (Grand Island, N.Y., USA).
The Huh-7 cells were incubated under an atmosphere containing 5% CO2 at 37° C.
In Experimental Example 4, the Huh-7 cells were plated in 24 wells at 3×10^5 cells/mL and incubated under an atmosphere containing 5% CO2 at 37° C.
(§1) One day later, the cell density approached about 80 to 90%. The medium was changed to an FBS-free RPMI1640 medium, and incubated under an atmosphere containing 5% CO2 at 37° C. for 24 hours.
Huh-7 cells of each well, excluding control cells, were pretreated with an OA/PA mixture (however, R-28 is OA) for 1 hour to induce steatosis. Control cells were pretreated with 1% FA-free BSA.
Each well was treated with 10 μM, 20 μM, or 40 μM of a test compound (however, for R-28, 2 μM, 10 μM and 50 μM), and cultured for 24 hours. The control cells and the OA/PA-treated cells were treated with DMSO. […]
Images were obtained from a Cytation 5 Cell Imaging Multi-Mode Reader (BioTek, Winooski, Vt., USA). […]
200 μL of isopropyl alcohol was added to each well, and the cells were collected in a 96-well plate. Absorbance was measured at 540 nm, and data was analyzed.

Pparα mRNA = assay: qRT-PCR Pparα mRNA level in steatosis-induced Huh-7 cells; type: cell-based, Human; conditions: steatosis-induced (OA/PA) Huh-7 cells; 10 μM; 24 hours
Description: (§2) In Experimental Example 5, the Huh-7 cells were plated in 6 wells at 4×10^5 cells/mL and incubated under an atmosphere containing 5% CO2 at 37° C.
as §1
(§3) Huh-7 cells of each well, excluding control cells, were pretreated with an OA/PA mixture for one hour to induce steatosis. The control cells were pretreated with 1% FA-free BSA.
(§4) Each well was treated with 10 μM of a test compound, and then the cells were incubated for 24 hours. The control cells and OA/PA-treated cells were treated with DMSO. Cells of a positive control were treated with 10 μM of resveratrol, 10 μM of piperine, and 10 μM of YU2014. The medium was entirely aspirated, and the cells were washed with PBS (phosphate buffered saline, Corning, Manassas, Va., USA) two times.
(§5) Total RNA was extracted using a RNeasy RNA isolation kit (Qiagen, Hilden, Germany).
(§6) 10 μL of β-mercaptoethanol (Sigma-Aldrich) per 1 mL of lysis buffer was added, thereby preparing an RNA lysis buffer. […]
(§7) An RNA concentration was measured at O.D. 260 nm using a nanophotometer N60 (Implen, Munich, Germany). The concentration and purity of RNA were measured at O.D. 260/280 nm and calculated as a ratio. […]
(§8) Quantitative analyses for the genes in Table 3 were performed.

Fgf21 mRNA = assay: qRT-PCR Fgf21 mRNA level in steatosis-induced Huh-7 cells; type: cell-based, Human; conditions: steatosis-induced (OA/PA) Huh-7 cells; 10 μM; 24 hours
Description: as §2, §1, §3, §4, §5, §6, §7, §8

Srebp1c mRNA = assay: qRT-PCR Srebp1c mRNA level in steatosis-induced Huh-7 cells; type: cell-based, Human; conditions: steatosis-induced (OA/PA) Huh-7 cells; 10 μM; 24 hours
Description: as §2, §1, §3, §4, §5, §6, §7, §8

SMILES: CSc1ccc(/C=C/C=C/C(=O)N2CCCCC2)cc1 [YU2014, (2E,4E)-5-(4-(methylthio)phenyl)-1-(piperidine-1-yl)penta-2,4-dien-1-one]
- degree of lipid staining (ORO, absorbance at 540 nm, FIGS. 5-8) (Huh-7 cells): not greatly changed
- Pparα mRNA level (FIG. 10) (Pparα mRNA): hardly increased; also recorded: no effect
- Fgf21 mRNA level (FIG. 12) (Fgf21 mRNA): almost no increase; also recorded: no effect
- Srebp1c mRNA level (FIG. 14) (Srebp1c mRNA): reduce

— patent publication US20200157048A1, “(2E,4E)-5-PHENYL-PENTA-2,4-DIEN-1-ONE DERIVATIVE” (BIOWAY., INC, priority 2018, published 2020)
